According to patent US20040138278A1, “Use of AT1 receptor antagonists for prevention of subsequent strokes” (Solvay Pharmaceuticals GmbH, priority 2002, published 2004):

How the values were obtained:
[1] = tested on: hypertensive and nonhypertensive stroke patients; settings: cited from earlier work
[2] = tested on: hypertensive patients after cerebral ischemia, transitory ischemic attack or intracerebral hemorrhage; experiment: Prospective, randomized clinical study (PROBE design) of eprosartan versus nitrendipine for prevention of subsequent strokes, interim report; format: in vivo, human; settings: for incidence of subsequent cerebrovascular events / number of subsequent cerebrovascular events: interim report, 179 patients eprosartan group, 158 patients nitrendipine group, average observation period 18.4 / 18.3 months; for number of subsequent cerebrovascular events: start 600 mg eprosartan once daily or 10 mg nitrendipine q.d.
Source text: A clinical study is currently being conducted on 1369 patients, investigating the suitability of antihypertensive agents of various pharmacological classes to reduce a patient's risk of suffering a subsequent stroke.
Of the 1369 patients (male/female), 691 patients received the AT1-receptor antagonist eprosartan (as eprosartan mesylate); 678 of the 1369 patients received the calcium antagonist nitrendipine.
The study is being conducted as a prospective, randomized, controlled and multicentric study and corresponds to the PROBE design (=prospective, randomized, open-blinded endpoint). The primary target criterion is the evaluation of the total mortality and the total number of cardiovascular and cerebrovascular events (strokes) in the sense of this invention.
The subsequent efficacy parameter is the change in mental abilities (evaluated on the basis of neurological findings, Barthel index and Rankin scale). In addition, the change in the average blood pressure over a period of time is evaluated in measurements performed on the patients sitting down in the office as well as in ambulatory 24-hour blood pressure measurements.
The study begins within 24 months after the occurrence of cerebral ischemia or an intracerebral hemorrhage in a patient. The patients are observed for up to four years. The essential prerequisite for including a patient in the study is hypertension requiring treatment and the condition following a cerebral ischemia, a transitory ischemic attack or an intracerebral hemorrhage within the last 24 months. Essential exclusion criteria include an occlusion or stenosis of greater than 70% of the internal carotid artery (ICA), manifest cardiac insufficiency (NYHY [sic; NYHA] class III-IV), age of patient greater than 85 years at the time of the cerebrovascular event, anticoagulant therapy for a patient because of cardiac arrhythmia, high-grade aortic or mitral valve stenosis, unstable angina pectoris or a known hypersensitivity to AT1-receptor antagonists or calcium antagonists of the dihyropyridine type or chemically related substances.
After inclusion in the study, the patients begin the randomized treatment phase with eprosartan or nitrendipine. Depending on the blood pressure readings and patient-specific criteria, treatment begins with 600 mg eprosartan once daily or 10 mg nitrendipine q.d. For long-term therapy, a diastolic blood pressure of less than 90 mmHg sitting down and a systolic blood pressure of less than 140 mmHg are the goals. For the 24-hour blood pressure measurements, a daily average of less than or equal to 135/85 mmHg is the goal. If additional antihypertensive therapy is necessary, conventional recognized criteria such as those recommended by the German Hypertension League are followed in the combination therapy. Combination therapy with ACE inhibitors, AT1-receptor antagonists or calcium antagonists should not be used.
Study end points (target criteria) are transmitted immediately to the central study office, where they are treated as open-blind results with respect to the medication and then forwarded to the End Point Committee. The committee performs the evaluation and classification of the findings with regard to a cardiovascular or cerebrovascular end point.
In an interim report on this study, the data on a total of 337 of the participating patients has been evaluated; 179 of these 337 patients received eprosartan (eprosartan group) and 158 of these 337 patients received nitrendipine (nitrendipine group). […]

Q: For CCC[C@H](N[C@@H](C)C(=O)N1[C@H](C(=O)O)C[C@@H]2CCCC[C@@H]21)C(=O)OCC [ACE monotherapy, perindopril], which “blood pressure of patients” value ([1]; hypertensive group) is on record?
A: Its value is “lowered to a comparable extent”.

Q: And the “risk of suffering a subsequent stroke” value ([1]; subgroup of hypertensive patients, versus placebo patient group)?
A: Its value is “did not differ from the corresponding risk in the placebo patient group”.

Q: For CCCCc1ncc(/C=C(\Cc2cccs2)C(=O)O)n1Cc1ccc(C(=O)O)cc1.CS(=O)(=O)O [eprosartan, (E)-α-[[2-butyl-1-[(4-carboxyphenyl)methyl]-1H-imidazol-5-yl]-methylene]-2-thiophenepropanoic acid monomethanesulfonate], which “incidence of subsequent cerebrovascular events” value [2] is on record?
A: The value was 8.4%.

Q: And the “number of subsequent cerebrovascular events” value [2]?
A: The value was 15.

Q: And the “reduction in a patient's risk of having a subsequent stroke” value ([2]; monotherapy, conclusion from the interim clinical findings)?
A: Its value is “significant reduction”.

Q: What does the source list for CCOC(=O)C1=C(C)NC(C)=C(C(=O)OC)C1c1cccc([N+](=O)[O-])c1 (stereo not shown) [nitrendipine]?
A: incidence of subsequent cerebrovascular events [2]: 13.9%; number of subsequent cerebrovascular events [2]: 22
